Legend:
[1] = test system: Measles morbillivirus; assay: Antiviral activity against Measles virus Alaska in Vero cells assessed as inhibition of cytopathic effect; type: functional, organism-based
[2] = Cytotoxicity against african green monkey Vero cells by MTT assay; type: cell-based; settings: chlorocebus sabaeus
[3] = Cytotoxicity against african green monkey Vero cells by trypan blue exclusion assay; type: cell-based; settings: chlorocebus sabaeus
[4] = test system: Measles morbillivirus; assay: Antiviral activity against Measles virus Alaska in Vero cells assessed as reduction of viral titer; type: functional, organism-based
[5] = test system: Measles morbillivirus; assay: Antiviral activity against Measles virus Edmonston; type: functional, organism-based
[6] = (§1) Selectivity index, ratio of CC50 for african green monkey Vero cells to EC50 for Measles virus Alaska; type: toxicity, cell-based; settings: read-out: Ratio CC50/EC50
[7] = as §1; type: toxicity, cell-based; settings: read-out: Ratio CC50/EC50; remark: listed apart in the source
[8] = Selectivity index, ratio of CC50 for Vero cells to EC50 for Measles virus Leningrad 16; type: toxicity, cell-based; settings: monkey, read-out: Ratio CC50/EC50

Structure (SMILES)	EC50 [1] [µM]	CC50 [2] [µM]	EC50 [4] [µM]	further results
Cn1nc(C(F)(F)F)cc1C(=O)Nc1ccc(S(=O)(=O)N2CCCCC2C(=O)OC(C)(C)C)cc1 (configuration not stated)	> 38	38	–	–
Cn1nc(C(F)(F)F)cc1C(=O)Nc1ccc(S(=O)(=O)N2CCOCC2)cc1	43	> 300	–	–
CC1CCCCN1S(=O)(=O)c1ccc(NC(=O)c2cc(C(F)(F)F)nn2Cc2ccccc2)cc1 (configuration not stated)	> 19	–	> 19	CC50 [3]: 19 µM
CC1CCCCN1S(=O)(=O)c1ccccc1NC(=O)c1cc(C(F)(F)F)nn1C (configuration not stated)	> 75	> 300	–	–
CC1CCN(S(=O)(=O)c2ccc(NC(=O)c3cc(C(F)(F)F)nn3C)cc2)CC1	< 2.3	> 300	0.035	CC50 [3]: 53 µM
CCN(CC)S(=O)(=O)c1ccc(NC(=O)c2cc(C(F)(F)F)nn2C)cc1	< 2.3	> 300	0.019	CC50 [3]: 280 µM
Cn1nc(C(F)(F)F)cc1C(=O)Nc1ccc(S(=O)(=O)N2CCN(CCOCCO)CC2)cc1	> 75	> 300	–	–
Cn1nc(C(F)(F)F)cc1C(=O)Nc1ccc(S(=O)(=O)N2CCN(C(=O)OC(C)(C)C)CC2)cc1	> 75	> 300	–	–
CC1CCCCN1S(=O)(=O)c1ccc(NC(=O)c2cc(C(F)(F)F)nn2C(C)C)cc1 (configuration not stated)	> 75	> 300	–	–
Cn1nc(C(F)(F)F)cc1C(=O)Nc1ccc(S(=O)(=O)N2CCC(O)CC2)cc1	6.8	274	0.57	–
Cn1nc(C(F)(F)F)cc1C(=O)Nc1ccc(S(=O)(=O)N2CCCCC2CO)cc1 (configuration not stated)	< 2.3	–	0.85	–
COC=C1CCN(S(=O)(=O)c2ccc(NC(=O)c3cc(C(F)(F)F)nn3C)cc2)CC1	> 75	92	–	–
CCCN(CCC)S(=O)(=O)c1ccc(NC(=O)c2cc(C(F)(F)F)nn2C)cc1	< 2.3	> 300	0.19	–
Cn1nc(C(F)(F)F)cc1C(=O)Nc1ccc(S(=O)(=O)n2ccc3ccccc32)cc1	> 13	–	–	–
COC(=O)c1ccccc1-n1nc(C(F)(F)F)cc1C(=O)Nc1ccc(S(=O)(=O)N2CCCC2)cc1	> 75	–	> 75	CC50 [3]: > 300 µM
CC(C)N(C(C)C)S(=O)(=O)c1ccc(NC(=O)c2cc(C(F)(F)F)nn2C)cc1	3.5	> 300	0.53	–
Cn1nc(C(F)(F)F)cc1C(=O)Nc1ccc(S(=O)(=O)N2CCCCC2C(=O)O)cc1 (configuration not stated)	> 75	> 300	–	–
O=C(O)c1ccccc1-n1nc(C(F)(F)F)cc1C(=O)Nc1ccc(S(=O)(=O)N2CCCC2)cc1	> 75	–	> 75	CC50 [3]: > 300 µM
CCn1nc(C(F)(F)F)cc1C(=O)Nc1ccc(S(=O)(=O)N2CCCCC2C)cc1 (configuration not stated)	< 2.3	30	0.055	–
Cn1nc(C(F)(F)F)cc1C(=O)Nc1ccc(S(=O)(=O)N2CCC(NC(=O)OC(C)(C)C)CC2)cc1	14.1	> 300	–	–
NC(=O)c1ccc([N+](=O)[O-])cc1NC(=O)Cc1ccccc1	–	–	–	EC50 [5]: 0.6 µM
Cn1nc(C(F)(F)F)cc1C(=O)Nc1ccc(S(=O)(=O)N2CCCCCC2)cc1	< 2.3	> 300	0.005	CC50 [3]: 425 µM

Structure (SMILES)	EC50 [1] [µM]	CC50 [2] [µM]	EC50 [4] [µM]	further results
Cn1nc(C(F)(F)F)cc1C(=O)Nc1ccc(S(=O)(=O)N2CCCCC2)cc1	< 2.3	> 300	0.014	selectivity ratio [6]: 14200; selectivity ratio [7]: > 130
COC(=O)C1CCCCN1S(=O)(=O)c1ccc(NC(=O)c2cc(C(F)(F)F)nn2C)cc1 (configuration not stated)	10	136	–	–
CN(C(=O)c1cc(C(F)(F)F)nn1C)c1ccc(S(=O)(=O)N2CCCCC2)cc1	> 75	286	–	–
CCC1CCCCN1S(=O)(=O)c1ccc(NC(=O)c2cc(C(F)(F)F)nn2C)cc1 (configuration not stated)	< 2.3	> 300	0.087	CC50 [3]: 14 µM
Cn1nc(C(F)(F)F)cc1C(=O)Nc1ccc(S(=O)(=O)N2CCC(C(F)(F)F)CC2)cc1	2.3	159	0.02	–
Cn1nc(C(F)(F)F)cc1C(=O)Nc1ccc(S(=O)(=O)OC2CCCCC2)cc1	> 75	> 300	–	–
Nc1ccc(O)c(NC(=O)Cc2ccccc2)c1	–	–	–	EC50 [5]: 0.26 µM
CC1CCCC(C)N1S(=O)(=O)c1ccc(NC(=O)c2cc(C(F)(F)F)nn2C)cc1 (configuration not stated)	< 2.3	> 300	0.014	CC50 [3]: 328 µM
Cn1nc(C(F)(F)F)c(Br)c1C(=O)Nc1ccc(S(=O)(=O)N2CCCC2)cc1	> 75	95	–	selectivity ratio [7]: < 1.3
Cn1nc(C(F)(F)F)cc1C(=O)Nc1ccc(S(=O)(=O)N2CCC(N)CC2)cc1	> 75	> 300	–	–
Cn1nc(C(F)(F)F)cc1C(=O)Nc1ccc(S(=O)(=O)N2CCCC2)cc1	–	–	–	EC50 [5]: 0.25 µM
Cn1nc(C(F)(F)F)cc1C(=O)Nc1ccc(S(=O)(=O)N2CCCCCCC2)cc1	< 2.3	16	0.045	–
NC(=O)c1ncn([C@@H]2O[C@H](CO)[C@@H](O)[C@H]2O)n1 [RIBAVIRIN]	–	–	–	selectivity ratio [8]: 14.4
CC(C)CN(CC(C)C)S(=O)(=O)c1ccc(NC(=O)c2cc(C(F)(F)F)nn2C)cc1	> 13.8	13.8	–	–
Cn1nc(C(F)(F)F)cc1C(=O)Nc1ccc(S(=O)(=O)NC2CCCCC2)cc1	> 15	15	–	–
CC1CCCCN1S(=O)(=O)c1ccc(NC(=O)c2cc(C(F)(F)F)nn2C)cc1 (configuration not stated)	< 2.3	> 300	0.029	CC50 [3]: 54 µM
Cn1nc(C(F)(F)F)cc1C(=O)Nc1ccc(S(=O)(=O)N2CCCC(C(=O)O)C2)cc1 (configuration not stated)	> 75	> 300	–	–
C=CCN(CC=C)S(=O)(=O)c1ccc(NC(=O)c2cc(C(F)(F)F)nn2C)cc1	3.3	34	–	–
Cn1nc(C(F)(F)F)cc1C(=O)Nc1ccc(S(=O)(=O)N2CCNCC2)cc1	28	–	–	–
CN(C)S(=O)(=O)c1ccc(NC(=O)c2cc(C(F)(F)F)nn2C)cc1	6.3	> 300	–	–
CC1CCCCN1S(=O)(=O)c1cccc(NC(=O)c2cc(C(F)(F)F)nn2C)c1 (configuration not stated)	> 75	84	–	–
Cn1nc(C(F)(F)F)cc1C(=O)Nc1ccc(S(=O)(=O)N2CCC[C@H]2C(=O)O)cc1	23	> 300	–	–
